# Tested on: macrophages
# Experiment: IL-8 secretion by macrophages incubated with serotonin receptor agonists (bead-based immunoassay)
# Format: cell-based
# Conditions: human CD14+ monocyte-derived macrophages (M-CSF), supernatant
# Experimental: CD14+ monocytes were isolated from human PBMCs using negative magnetic bead selection (Stemcell Technologies) on day 0. Cells were cultured with M-CSF to differentiate monocytes to macrophages. On day 6, cells were treated with LP44 (high affinity 5-HT7 agonist), BW 723C86 hydrochloride (5-HT2B agonist), MK 212 hydrochloride (5-HT2C agonist) (Sigma-Aldrich), at concentrations 1 μM and 10 μM overnight. Supernatant was collected and bead-based immunoassays (Biolegend) were performed to detect changes in cytokine secretion.
# Across multiple human donors, secretion of the inflammatory cytokine, IL8, by macrophages was decreased after addition of each of the HTR2B, HTR2C, and HTR7 agonists, as show in Table 17 below.
SMILES,Fold change of IL-8 (Normalized to Macs + LPS with no compound treatment) (compound 1 μM overnight),Fold change of IL-8 (Normalized to Macs + LPS with no compound treatment) (compound 10 μM overnight)
CC(N)Cc1c[nH]c2ccc(OCc3cccs3)cc12.Cl (stereo not drawn) [BW723086],0.693,0.527
CSc1ccccc1N1CCN(CCCCCC(=O)NC2CCCc3ccccc32)CC1 (stereo not drawn) [LP44],0.340,0.427
Clc1cncc(N2CCNCC2)n1 [MK212],0.502,0.484

# From patent publication US11208475B1, “Methods and compositions for treating inflammatory or autoimmune diseases or conditions using serotonin receptor activators” (Flagship Pioneering Innovations V, Inc., priority 2018, dated 2021)
